What was measured:
[1] = system: hepatocellular carcinoma patients treated with TACE; assay: Comparative clinical study of TSU-68 administration vs non-administration after TACE (progression-free survival); assay type: in vivo, human
Method: A comparative clinical study was conducted for the TSU-68 administration group and the TSU-68 non-administration group consisting of cases diagnosed as hepatocellular carcinoma that were impossible to treat with hepatectomy and PAT and had been treated with TACE. The antitumor agent used herein for TACE was epirubicin.
The subject cases were randomly assigned to the TSU-68 administration group and the TSU-68 non-administration group. TSU-68 administration was initiated for cases assigned to the TSU-68 administration group within 2 weeks after TACE. TSU-68 was administered orally at a dose of 200 mg per administration twice daily after breakfast and dinner on consecutive days. No further cancer treatment was given to the TSU-68 non-administration group after TACE and thus only follow-up observation was carried out.
Progression-free survival was defined as survival within the period from the day of TACE designated as the initial date of reckoning to any of dates on which the following events was observed, whichever came first.
1. Date on which the presence of progressive disease (hereinafter referred to as “PD”) was confirmed as a result of assessment of best overall response (date of testing). 2. Date on which a test subject died for any reason (date of death). 3. Date on which a test subject was assessed to have experienced clinically obvious deterioration of the disease or to be in need of post-TACE treatment even without confirmation of PD upon assessment of best overall response (date of assessment).
Best overall response was evaluated by measuring tumor diameters by CT and assaying tumor markers (AFP, PIVKA-II, and AFP-L3 fractions) according to New Guideline to Evaluate the Response to Treatment in Solid Tumor (hereinafter referred to as “RECIST”) (J Natl Cancer Inst 92: 205, 2000).
The expression levels of PDGF-BB and IL-8 in blood obtained before TSU-68 administration after TACE were determined using ELISA Kits as described below.
Cut-off points were determined by the statistical analysis technique described below based on the quantified PDGF-BB and IL-8 levels.
(1) The cut-off point for dividing patients into the PDGF-BB hyperexpression group and the PDGF-BB underexpression group was calculated so that the difference between the 6-month-progression-free survival rate for the TSU-68 administration group and the 6-month-progression-free survival rate for the TSU-68 non-administration group was 20% or more for patients in the PDGF-BB hyperexpression group. The cut-off point was 1480 to 2030 pg/ml. (2) The cut-off point for dividing patients into the PDGF-BB hyperexpression group and the PDGF-BB underexpression group was calculated so that the hazard ratio of the TSU-68 administration group to the TSU-68 non-administration group was 0.6 or less for patients in the PDGF-BB hyperexpression group. The cut-off point was 1740 to 1960 pg/ml. (3) The cut-off point for dividing patients into the IL-8 hyperexpression group and the IL-8 underexpression group was calculated so that the difference between the 6-month-progression-free survival rate for the TSU-68 administration group and the 6-month-progression-free survival rate for the TSU-68 non-administration group was 20% or more for cases in the IL-8 hyperexpression group. The cut-off point was 2.1 to 6.6 pg/ml. (4) The cut-off point for dividing patients into the IL-8 hyperexpression group and the IL-8 underexpression group was calculated so that the hazard ratio of the TSU-68 administration group to the TSU-68 non-administration group was 0.6 or less for cases in the IL-8 hyperexpression group. The cut-off point was 2.1 to 10.5 pg/ml.
The PDGF-BB hyperexpression group, the PDGF-BB underexpression group, the IL-8 hyperexpression group, and the IL-8 underexpression group were subjected to survival time analysis of the TSU-68 administration group and the TSU-68 non-administration group with the use of the cut-off points calculated in Example 1.

[2] = system: human cancer cell lines subcutaneously implanted (lung cancer, colon cancer, ovarian cancer); details: oral administration of TSU-68 alone, Non-Patent Literature 3; cited from earlier work
[3] = IL-8 hyperexpression group, cut-off 2.1 pg/ml, vs non-administration
[4] = IL-8 hyperexpression group, cut-off 6.6 pg/ml, vs non-administration
[5] = IL-8 hyperexpression group, cut-off 10.5 pg/ml, vs non-administration
[6] = IL-8 underexpression group, cut-off 6.6 pg/ml, vs non-administration
[7] = IL-8 underexpression group, cut-off 10.5 pg/ml, vs non-administration
[8] = PDGF-BB hyperexpression group, cut-off 1480 pg/ml, vs non-administration
[9] = PDGF-BB hyperexpression group, cut-off 1740 pg/ml, vs non-administration
[10] = PDGF-BB hyperexpression group, cut-off 1960 pg/ml, vs non-administration
[11] = PDGF-BB hyperexpression group, cut-off 2030 pg/ml, vs non-administration
[12] = PDGF-BB underexpression group, cut-off 1480 pg/ml, vs non-administration
[13] = PDGF-BB underexpression group, cut-off 1740 pg/ml, vs non-administration
[14] = PDGF-BB underexpression group, cut-off 1960 pg/ml, vs non-administration
[15] = PDGF-BB underexpression group, cut-off 2030 pg/ml, vs non-administration
[16] = patients having high PDGF-BB or IL-8 blood levels (summary over cut-off points), vs non-administration
[17] = stratified using reported VCAM cut-off point 2370 pg/ml (data not shown), vs non-administration

## Cc1[nH]c(/C=C2\C(=O)Nc3ccccc32)c(C)c1CCC(=O)O [TSU-68, (Z)-5-[(1,2-dihydro-2-oxo-3H-indol-3-ylidene)methyl]2,4-dimethyl-1H-pyrro 1-3-propanoic acid]
[1]; IL-8 hyperexpression group, cut-off 2.1 pg/ml
  6-month-progression-free survival rates: 48%
[1]; [3]
  Difference between 6-month-progression-free survival rate: 23%
  Hazard ratio: 0.51
[1]; IL-8 hyperexpression group, cut-off 6.6 pg/ml
  6-month-progression-free survival rate: 50%
[1]; [4]
  Difference between 6-month-progression-free survival rates: 20%
  Hazard ratio: 0.51
[1]; IL-8 hyperexpression group, cut-off 10.5 pg/ml
  6-month-progression-free survival rate: 56%
[1]; [5]
  Difference between 6-month-progression-free survival rates: 27%
  Hazard ratio: 0.51
[1]; IL-8 underexpression group, cut-off 2.1 pg/ml
  6-month-progression-free survival rates: 0%
[1]; IL-8 underexpression group, cut-off 2.1 pg/ml, vs non-administration
  Difference between 6-month-progression-free survival rate: −57%
[1]; IL-8 underexpression group, cut-off 6.6 pg/ml
  6-month-progression-free survival rate: 39%
[1]; [6]
  Difference between 6-month-progression-free survival rates: 9%
  Hazard ratio: 0.92
[1]; IL-8 underexpression group, cut-off 10.5 pg/ml
  6-month-progression-free survival rate: 41%
[1]; [7]
  Difference between 6-month-progression-free survival rates: 11%
  Hazard ratio: 0.79
[1]; PDGF-BB hyperexpression group, cut-off 1480 pg/ml
  6-month-progression-free survival rate: 52%
[1]; [8]
  Difference between 6-month-progression-free survival rates: 21%
  Hazard ratio: 0.64
[1]; PDGF-BB hyperexpression group, cut-off 1740 pg/ml
  6-month-progression-free survival rate: 52%
[1]; [9]
  Difference between 6-month-progression-free survival rates: 25%
  Hazard ratio: 0.59
[1]; PDGF-BB hyperexpression group, cut-off 1960 pg/ml
  6-month-progression-free survival rate: 52%
[1]; [10]
  Difference between 6-month-progression-free survival rates: 25%
  Hazard ratio: 0.55
[1]; PDGF-BB hyperexpression group, cut-off 2030 pg/ml
  6-month-progression-free survival rate: 52%
[1]; [11]
  Difference between 6-month-progression-free survival rates: 24%
  Hazard ratio: 0.62
[1]; PDGF-BB underexpression group, cut-off 1480 pg/ml
  6-month-progression-free survival rate: 25%
[1]; [12]
  Difference between 6-month-progression-free survival rates: 2%
  Hazard ratio: 0.73
[1]; PDGF-BB underexpression group, cut-off 1740 pg/ml
  6-month-progression-free survival rate: 40%
[1]; [13]
  Difference between 6-month-progression-free survival rates: 2%
  Hazard ratio: 0.85
[1]; PDGF-BB underexpression group, cut-off 1960 pg/ml
  6-month-progression-free survival rate: 40%
[1]; [14]
  Difference between 6-month-progression-free survival rates: 7%
  Hazard ratio: 0.84
[1]; PDGF-BB underexpression group, cut-off 2030 pg/ml
  6-month-progression-free survival rate: 42%
[1]; [15]
  Difference between 6-month-progression-free survival rates: 10%
  Hazard ratio: 0.75
[1]; all cases, TSU-68 200 mg orally twice daily after TACE
  6-month-progression-free survival rate: 47%
[1]; all cases, TSU-68 administration to non-administration group
  Hazard ratio: 0.69
[1]; all cases, TSU-68 administration vs non-administration group
  Difference between 6-month-progression-free survival rates: 18%
[1]; [16]
  Difference between 6-month-progression-free survival rates: 22% to 27
  Hazard ratio: 0.51 to 0.68
[1]; [17]
  Difference between 6-month-progression-free survival rates: < 20%
  Hazard ratio: > 0.6
[2]
  antitumor effects (tumor growth inhibition): effective for inhibiting tumor growth

— US20120264803A1, “METHOD FOR PREDICTING THERAPEUTIC EFFECTS OF CHEMOTHERAPY ON HEPATOCELLULAR CARCINOMA PATIENTS” (priority 2009, published 2012)
